Assay [1] relates to mice fed a normal diet or a high fat diet. To be noted: cited from earlier work; for glucose tolerance: injection.
Assay [2] has as its system mice fed a high fat diet (HFD). The assay is described as follows: Glucose tolerance test in mice fed a high fat diet. Format: in vivo, C57B16/J male mice. The following applies: for total blood glucose AUC: after i.p. 1 g/kg glucose; for baseline glucose (fasting blood glucose): sodium salt. As for the experimental part: C57B16/J male mice were fed a normal diet until 9-10 weeks of age. […] For determination of blood glucose, mice were administered test compound orally in 0.5% methocel once or twice daily for several days prior to the glucose challenge. Compounds were administered as a sodium salt. On the day of the glucose tolerance test (GTT) mice were fasted for 6-8 hours and a last dose of test compound administered orally 1-3 hours before the intraperitoneal (i.p.) injection of 1 g/kg D-glucose (Sigma). Blood from the tail vein was sampled before the glucose load (baseline glucose) and every 15-30 min over the next 120 min after the glucose challenge to monitor blood glucose concentration. Blood glucose was quantified using a glucose meter (Accu-Chek, Roche Diagnostics or AlphaTRAK, Abbott Animal Health) and plotted vs. time. Total blood glucose area under the curve (AUC) after the i.p. glucose challenge was calculated from the time plot using GraphPad Prism6.

Assay [3] has as its target T1, human autotaxin (ATX) (Homo sapiens, UniProt Q13822).
T1 construct: ATX activity is assayed in concentrated conditioned media from Hep3B human hepatocellular carcinoma cells; endogenous in cells; host or cells: Hep3B human hepatocellular carcinoma cells (20-fold concentrated conditioned medium)
Nature of the assay: Human autotaxin assay (choline release from LPC, Hep3B conditioned media). To be noted: LPC 14:0 100 uM. Format: biochemical. The protocol:
ATX activity is assayed in concentrated conditioned media from Hep3B human hepatocellular carcinoma cells by measuring the amount of choline released from the substrate, lysophosphatidylcholine (LPC) as it is cleaved to LPA. Conditioned media is collected from confluent Hep3B cells and concentrated 20-fold using Centriprep-30 filter devices (Millipore).

Where [4] appears, read: chronic treatment, mice fed a high fat diet.
Where [5] appears, read: 30 mg/kg oral twice daily for two days and once on the day of sampling.
Where [6] appears, read: 30 mg/kg oral twice daily for two days prior to sampling and once on the day of sampling.

Structures can show the parent of a compound that is named as a salt. Where two headings read alike, the source gives them in different places.

`Cc1noc(-c2ccc(CSCCC(=O)O)cc2)c1NC(=O)OC(C)c1ccccc1Cl` (centres unmarked) [Ki16425]: in assay [1] (setting [4]), the “capacity of a muscle to oxidize glucose” value is reported as “increases”, the fasting insulin levels entry is “improves”, the insulin sensitivity result was “improves” and the liver glycogen storage entry is “increases”. The glucose tolerance result in assay [1] (mice fed a high fat diet) is listed as “does significantly improve”. Further, the glucose tolerance entry in assay [1] (mice fed a normal diet) is reported as “does not significantly improve”.
As to `CCCn1cc(-n2c(Cl)c(Sc3cccc(C(=O)O)c3F)c3ccc(Cl)c(F)c32)cn1` [Compound C, 3-((2,6-dichloro-7-fluoro-1-(1-propyl-1H-pyrazol-4-yl)-1H-indol-3-yl)thio)-2-fluorobenzoic acid], the “total blood glucose AUC” value in assay [2] (15 mg/kg oral twice daily for two days and once on the day of sampling) is listed as “decrease”. The “baseline glucose (fasting blood glucose)” value in assay [2] (15 mg/kg oral twice daily for two days prior to sampling and once on the day of sampling) is recorded as “decrease”.
Consider `O=C(O)CCN1C(=O)[C@@H]2Cc3c(n(Cc4ccc(F)cc4)c4ccccc34)CN2C1=O` [Compound A, (S)-3-(6-(4-fluorobenzyl)-1,3-dioxo-5,6,11,11a-tetrahydro-1H-imidazo [1′,5′:1,6]pyrido[3,4-b]indol-2(3H)-yl)propanoic acid], for which the “total blood glucose AUC” value in assay [2] (setting [5]) is recorded as “decrease”. For the same compound, in assay [2] (setting [6]), the “baseline glucose (fasting blood glucose)” value is listed as “decrease”.
On to `Cc1c(Sc2cccc(C(=O)O)c2F)c2ccc(Cl)c(F)c2n1CC(=O)N1CCC(O)(C(F)(F)F)C1` (single isomer, unassigned) [Compound E], for which, in assay [2] (30 mg/kg oral once daily for 5 days prior to sampling), the “baseline glucose (fasting blood glucose)” value was “decrease”.
Turning to `CCn1cc(-n2c(C3CC3)c(Sc3cccc(C(=O)O)n3)c3ccc(Cl)c(F)c32)cn1` [Compound D, 6-((6-chloro-2-cyclopropyl-1-(1-ethyl-1H-pyrazol-4-yl)-7-fluoro-1H-indol-3-yl)thio)picolinic acid sodium salt], in assay [3], the IC50 is < 500 nM. In assay [2] (setting [5]), the “total blood glucose AUC” value is listed as “decrease”. In addition, the “baseline glucose (fasting blood glucose)” value in assay [2] (setting [6]) is “decrease”.

What is called IC50 is the concentration that gives 50% inhibition. Lower therefore signals higher potency.

(Values after US9051320B1, “Methods for the treatment of metabolic disorders by a selective small molecule autotaxin inhibitor” (PharmAkea, Inc., priority 2014, dated 2015).)
